Measurements: patent US6339096B1, “Urethanes derived from azacycloalkanes, the thio and dithio analogues thereof and their use as cholesterol biosynthesis inhibitors” (Boehringer Ingelheim Pharma KG, priority 1998, dated 2002)
Structures can show the parent of a compound that is named as a salt.

Tests used:
[1] = target: T1, 2,3-epoxysqualene-lanosterol-cyclase (Rattus norvegicus, UniProt P48450); test: In-vivo activity in the rat after oral administration: 2,3-epoxysqualene level in the liver
T1 construct: The quantity of 2,3-epoxysqualene formed therefore serves as a direct measurement of the potency on the animal as a whole; from tissue; host or cells: living rat; 2,3-epoxysqualene measured in the liver
T1 sequence (P48450 1-733): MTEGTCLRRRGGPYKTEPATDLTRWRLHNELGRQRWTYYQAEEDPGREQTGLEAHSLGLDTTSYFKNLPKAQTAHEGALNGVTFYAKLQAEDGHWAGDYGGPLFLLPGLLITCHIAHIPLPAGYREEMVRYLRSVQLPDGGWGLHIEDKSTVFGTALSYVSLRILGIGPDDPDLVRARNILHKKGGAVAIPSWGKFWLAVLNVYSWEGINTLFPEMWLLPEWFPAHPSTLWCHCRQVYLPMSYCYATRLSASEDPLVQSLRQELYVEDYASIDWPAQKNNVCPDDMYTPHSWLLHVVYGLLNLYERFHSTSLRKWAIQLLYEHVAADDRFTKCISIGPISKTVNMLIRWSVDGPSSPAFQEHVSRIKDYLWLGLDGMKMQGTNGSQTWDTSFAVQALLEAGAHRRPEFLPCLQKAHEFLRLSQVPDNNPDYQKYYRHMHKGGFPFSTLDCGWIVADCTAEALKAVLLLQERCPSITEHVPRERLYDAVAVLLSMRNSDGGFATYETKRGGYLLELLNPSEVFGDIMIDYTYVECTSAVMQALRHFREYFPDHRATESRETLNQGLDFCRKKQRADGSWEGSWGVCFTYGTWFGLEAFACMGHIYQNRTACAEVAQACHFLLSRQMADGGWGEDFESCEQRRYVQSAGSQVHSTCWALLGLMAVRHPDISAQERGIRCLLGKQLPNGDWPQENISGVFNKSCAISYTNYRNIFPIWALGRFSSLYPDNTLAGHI
Method: II. Measuring the In-vivo Activity in the Rat after Oral Administration
Inhibiting the enzyme 2,3-epoxysqualene-lanosterol-cyclase causes an increase in the 2,3-epoxisqualene levels in the liver and plasma. The quantity of 2,3-epoxysqualene formed therefore serves as a direct measurement of the potency on the animal as a whole. The amounts were determined using the method described in J. Lipid. Res. 38, 564-575, [1997] after t=3 or 8 hours after administration of the substance in concentrations of c=0.01, 0.03, 0.1, 0.3 and 1.0 mg/kg. Table 3 which follows gives the results obtained for the abovementioned substances A, B, C, D, E, G, H, I and K by way of example.
In the control animals there were no measurable 2,3-epoxisqualene levels under these conditions.

[2] = test system: ^14C-acetate incorporation into the steroids which can be precipitated with digitonin; test: Inhibition of 14C-acetate incorporation into the steroids which can be precipitated with digitonin; assay type: cell-based; settings: for inhibition at 0.01 µM / inhibition at 0.001 µM: read-out: percentage by which the compound inhibits the 14C-acetate incorporation
Method: I. Measuring the Inhibition of ^14C-acetate Incorporation into the Steroids which can be Precipitated with Digitonin
The inhibitory effect was investigated using the method described in J. Lipid. Res. 37, 148-157 [1996] at test concentrations of 10^−8 and 10^−9 mol/l.
The IC50 values of compounds H, I, K and M were determined.

[3] = test system: normolipaemic golden hamster; test: Lipid reduction in the normolipaemic golden hamster; assay type: in vivo; settings: compared with control group
Method: III. Lipid Reduction in the Normolipaemic Golden Hamster This was determined using the method described in J. Lipid. Res. 38, 564-575, (1997). At the end of the experiment the total cholesterol, β-lipoprotein-cholesterol and HDL-cholesterol were determined and compared with the values of a control group which were fed without any test substance. The lipid-lowering activity of the abovementioned compound H was tested.

SMILES | 2,3-epoxysqualene concentration in the liver (rat) ([1]; c=1.0 mg/kg, t=3 h) [µg/g] | 2,3-epoxysqualene concentration in the liver (rat) ([1]; c=1.0 mg/kg, t=8 h) [µg/g] | 2,3-epoxysqualene concentration in the liver (rat) ([1]; c=0.1 mg/kg, t=3 h) [µg/g] | inhibition at 0.01 µM ([2]; test concentration 10^−8 mol/l) [%] | inhibition at 0.001 µM ([2]; test concentration 10^−9 mol/l) [%] | 2,3-epoxysqualene concentration in the liver (rat) ([1]; c=0.1 mg/kg, t=8 h) [µg/g] | IC50 [2] [nM] | also measured
CN(C)Cc1ccc(SC2CCN(C(=O)Oc3ccccc3)CC2)cc1.Cl |  |  |  |  |  |  |  | melting point: 161 °C
CN(C)Cc1ccc(SC2CCN(C(=O)Oc3ccc(Cl)cc3)CC2)cc1.Cl [(D), N-(4-chlorophenoxy)carbonyl-4-[4-(dimethylaminomethyl)phenylthio]piperidine-hydrochloride] |  |  | 1.4 | 86 | 55 | 1.8 |  | 2,3-epoxysqualene concentration in the liver (rat) ([1]; c=0.01 mg/kg, t=3 h): 1.3 µg/g; 2,3-epoxysqualene concentration in the liver (rat) ([1]; c=0.01 mg/kg, t=8 h): 1.0 µg/g
CN(C)Cc1ccc(C=C2CCN(C(=S)SCc3ccccc3)CC2)cc1 [(F), N-(benzylthio)thiocarbonyl-4-[4-(dimethylaminomethyl)benzyliden]piperidine-hydrochloride] |  |  |  | 84 | 45 |  |  | 
CN(C)Cc1ccc(CC2CCN(C(=O)Oc3ccc(Cl)cc3)CC2)cc1.Cl [(H), N-(4-chlorophenoxy)carbonyl-4-[4-(dimethylaminomethyl)benzyl]piperidine-hydrochloride] | 56.3 | 20.7 | 1.0 | 80 | 45 | 0.8 | 0.8 | HDL-cholesterol ([3]; dose 6.5 mg/kg/day): −3.4%; Total cholesterol ([3]; dose 6.5 mg/kg/day): −8.3%; β-Lipoprotein-cholesterol ([3]; dose 6.5 mg/kg/day): −13.0%; HDL-cholesterol ([3]; dose 19.9 mg/kg/day): −8.2%; Total cholesterol ([3]; dose 19.9 mg/kg/day): −11.0%; β-Lipoprotein-cholesterol ([3]; dose 19.9 mg/kg/day): −13.2%; HDL-cholesterol ([3]; dose 62.3 mg/kg/day): −28.5%; Total cholesterol ([3]; dose 62.3 mg/kg/day): −32.1%; β-Lipoprotein-cholesterol ([3]; dose 62.3 mg/kg/day): −33.7%
Cc1ccc(OC(=O)N2CCC(Cc3ccc(CN(C)C)cc3)CC2)cc1.Cl [(K), 4-[4-(dimethylaminomethyl)benzyl]-N-(4-methylphenoxy)carbonylpiperidine-hydrochloride] | 24.0 | 5.5 | 0.4 | 82 | 49 | 0.4 | 1.4 | HDL-cholesterol ([3]; dose 54.2 mg/kg/day): 2.3%; Total cholesterol ([3]; dose 54.2 mg/kg/day): −6.8%; β-Lipoprotein-cholesterol ([3]; dose 54.2 mg/kg/day): −21.2%
Cc1ccc(OC(=S)N2CCC(Cc3ccc(CN(C)C)cc3)CC2)cc1 [(L), 4-[4-(dimethylaminomethyl)benzyl]-N-(4-methylphenoxy)thiocarbonylpiperidine-hydrochloride] |  |  |  | 88 | 64 |  |  | 
CN(C)Cc1ccc(CC2CCN(C(=O)Oc3ccc(F)cc3)CC2)cc1.Cl [(M), 4-[4-(dimethylaminomethyl)benzyl]-N-(4-fluorphenoxy)carbonylpiperidine-hydrochloride] |  |  |  |  |  |  | 1.5 | HDL-cholesterol ([3]; dose 57.5 mg/kg/day): −20.4%; Total cholesterol ([3]; dose 57.5 mg/kg/day): −26.8%; β-Lipoprotein-cholesterol ([3]; dose 57.5 mg/kg/day): −31.6%; percentage by which the compound inhibits the 14C-acetate incorporation ([2]; test concentration 10^−8 mol/l): −84%; percentage by which the compound inhibits the 14C-acetate incorporation ([2]; test concentration 10^−9 mol/l): −59%
CN(C)Cc1ccc([C@H]2CC[C@H](N(C)C(=O)c3ccc(Cl)cc3)CC2)cc1 [(V), reference compound] |  |  |  |  |  |  | 3.8 | percentage by which the compound inhibits the 14C-acetate incorporation ([2]; test concentration 10^−8 mol/l): −59%; percentage by which the compound inhibits the 14C-acetate incorporation ([2]; test concentration 10^−9 mol/l): −23%
Cc1ccc(CC(=O)O[C@H]2CC[C@H](c3ccc(CN(C)C)cc3)CC2)cc1 [(W), trans-O-(p-tolylacetyl)-4-(4-dimethylaminomethylphenyl)cyclohexanol, reference compound] |  |  |  | 72 | 21 |  | 9.6 | 

More lines, main results first:

2,3-epoxysqualene concentration in the liver (rat) ([1]; c=1.0 mg/kg, t=3 h) [µg/g] | 2,3-epoxysqualene concentration in the liver (rat) ([1]; c=1.0 mg/kg, t=8 h) [µg/g] | 2,3-epoxysqualene concentration in the liver (rat) ([1]; c=0.1 mg/kg, t=3 h) [µg/g] | SMILES | inhibition at 0.01 µM ([2]; test concentration 10^−8 mol/l) [%] | inhibition at 0.001 µM ([2]; test concentration 10^−9 mol/l) [%] | 2,3-epoxysqualene concentration in the liver (rat) ([1]; c=0.1 mg/kg, t=8 h) [µg/g] | IC50 [2] [nM] | also measured
9.3 | 9.8 |  | CN(C)Cc1ccc(SC2CCN(C(=S)SCc3ccccc3)CC2)cc1.Cl [(A), N-(benzylthio)thiocarbonyl-4-[4-(dimethylaminomethyl)phenylthio]piperidine-hydrochloride] | 85 | 53 |  |  | 2,3-epoxysqualene concentration in the liver (rat) ([1]; c=0.3 mg/kg, t=3 h): 2.0 µg/g; 2,3-epoxysqualene concentration in the liver (rat) ([1]; c=0.3 mg/kg, t=8 h): 1.2 µg/g
39.2 | 42.0 |  | CN(C)Cc1ccc(C(=O)C2CCN(C(=S)SCc3ccccc3)CC2)cc1.Cl [(B), N-(benzylthio)thiocarbonyl-4-[4-(dimethylaminomethyl)benzoyl]piperidine-hydrochloride] | 85 | 47 |  |  | 2,3-epoxysqualene concentration in the liver (rat) ([1]; c=0.3 mg/kg, t=3 h): 4.5 µg/g; 2,3-epoxysqualene concentration in the liver (rat) ([1]; c=0.3 mg/kg, t=8 h): 5.8 µg/g
3.8 | 2.0 | 0.5 | CN(C)Cc1ccc(SC2CCN(C(=O)OCc3ccccc3)CC2)cc1.Cl [(C), N-benzyloxycarbonyl-4-[4-(dimethylaminomethyl)phenylthio]piperidine-hydrochloride] | 78 | 57 | 1.3 |  | 2,3-epoxysqualene concentration in the liver (rat) ([1]; c=0.01 mg/kg, t=3 h): 0.6 µg/g; 2,3-epoxysqualene concentration in the liver (rat) ([1]; c=0.01 mg/kg, t=8 h): 3.0 µg/g; 2,3-epoxysqualene concentration in the liver (rat) ([1]; c=0.3 mg/kg, t=3 h): 0.5 µg/g; 2,3-epoxysqualene concentration in the liver (rat) ([1]; c=0.3 mg/kg, t=8 h): 1.8 µg/g
 |  | 5.6 | CN(C)Cc1ccc(CC2CCN(C(=S)SCc3ccccc3)CC2)cc1.Cl [(E), N-(benzylthio)thiocarbonyl-4-[4-(dimethylaminomethyl)benzyl]piperidine-hydrochloride] | 87 | 47 | 4.4 |  | 2,3-epoxysqualene concentration in the liver (rat) ([1]; c=0.01 mg/kg, t=3 h): 0.9 µg/g; 2,3-epoxysqualene concentration in the liver (rat) ([1]; c=0.01 mg/kg, t=8 h): 1.0 µg/g
87.4 | 134.2 | 10.3 | CN(C)Cc1ccc(CC2CCN(C(=S)Oc3ccc(Cl)cc3)CC2)cc1.Cl [(G), N-(4-chlorophenoxy)thiocarbonyl-4-[4-(dimethylaminomethyl)benzyl]piperidine-hydrochloride] | 83 | 56 | 11.5 |  | 
26.1 | 10.0 | 1.0 | CN(C)Cc1ccc(CC2CCN(C(=O)OCc3ccccc3)CC2)cc1.Cl [(I), N-benzyloxycarbonyl-4-[4-(dimethylaminomethyl)benzyl]piperidine-hydrochloride] | 85 | 47 |  | 1.2 | 
